Test results from ChEMBL document CHEMBL3507680, “University of Dundee, Gates Library screen for HepG2 cell viability”.

Assay: Human HepG2 cell viability assay in 384 well format
Assay type: toxicity, cell-based
Design: dose 125 nL, time 70.5 hour; cytotoxicity at 70.5 h: concentration not given beside the values
Conditions: HepG2 cells, read-out: Inhibition

SMILES | cytotoxicity at 70.5 h
Cc1cc(C)n(C2CCCN(C(=O)CCc3nccs3)C2)n1 (stereo not drawn) | 28.2%
CO[C@@H]1CC[C@H]2[C@H]1OCCN2C(=O)C1CCOCC1 | -15%
Fc1cccnc1O[C@H]1CN(Cc2ccoc2)[C@@H]2CCCO[C@H]12 | -4.66%
COCCN(C)Cc1nc(-c2cccc(F)c2F)oc1C | -11.3%
CN1[C@H](CN2CCCC2)C[C@@H]2CN(C(=O)Cc3ccsc3)CC[C@@H]21 | -10.6%
O=C(c1cocn1)N1C[C@@H]2COC[C@]2(COc2cccnc2)C1 | -4.92%
O=C(c1ncccn1)N1C[C@@H]2CC[C@H](Oc3cccc(F)c3)[C@@H]2C1 | -6.95%
COc1ncccc1CN1CCC2(CC1)CN(c1ccccn1)CCO2 | -6.12%
CC(=O)c1ccc(NC(=O)C(NC(=O)Nc2ccccc2)C(C)C)cc1 (stereo not drawn) | -10.8%
O=C1CCCc2[nH]c(=O)c(C(=O)N(Cc3ccsc3)C3CC3)cc21 | -1.04%
O=C(C1CCS(=O)(=O)CC1)N1CCC(Cc2ccc(F)cc2)CC1 | 3.44%
CC(C)Oc1cccc(C(=O)C2CCCN(C(=O)c3cncs3)C2)c1 (stereo not drawn) | -10.7%
CCN1C(=O)CC[C@]12CC[C@@H](NC(=O)NCc1cccnc1)CC2 | -4.88%
CC(C)CCN1CCNC(=O)C1CC(=O)N1CCc2sccc2C1 (stereo not drawn) | -7.67%
CCOc1cccc2c1OCC(C(=O)NS(=O)(=O)c1ccc(C)s1)=C2 | -4.35%
N#Cc1cccc(CN2C[C@@H]3CN(c4ncccn4)C[C@@H]3C2)c1 | -6.36%
Cc1ncsc1CN1C[C@@H]2COC[C@]2(C(=O)NCC2CC2)C1 | -3.67%
Cc1cccc(CC(=O)N2CCN(c3nccn3C)CC2)c1 | -1.55%
Cc1ccccc1CN(Cc1ccccn1)C(=O)CNS(C)(=O)=O | 25.2%
COCCCNC(=O)N1CCC(CNC(=O)c2cnn(C)c2)CC1 | -8.18%
CCc1cc(CN(C)C(=O)c2cc(=O)[nH]c(=O)[nH]2)on1 | -9.27%
N[C@H]1c2ccccc2C[C@@H]1NC(=O)C1CCN(Cc2ccco2)CC1 | -11.4%

SMILES | cytotoxicity at 70.5 h
Cc1noc(C)c1CCN1CCCC1c1nc2cc(F)ccc2[nH]1 (stereo not drawn) | -5.52%
CN1CCN2CCN(Cc3ccccc3Cn3cccn3)CC2C1 (stereo not drawn) | -0.968%
Cc1ccccc1N1CCN(CCS(=O)(=O)c2ccc(Br)cc2)CC1 | 16%
N#CC1CCN(C(=O)NCCc2ccc(Cl)s2)CC1 | -3.5%
O=C(NC1CCC1)[C@@H]1C[C@@H]2CCN(Cc3ccncc3)C[C@H]2O1 | -4.89%
N#Cc1ncn(CC(=O)Cc2c(F)cccc2Cl)n1 | -5.66%
Cc1cccc(CN2CCC23CCCNC3)n1 (stereo not drawn) | -9.59%
Cn1cc(-c2nc3c(cc2C(=O)O)CCN(C(=O)C2CC2)CC3)cn1 | -7.13%
Cc1cc(CNC2(c3ccccc3)CCCCC2)no1 | -4.77%
COc1ccc(CN2C[C@@H](CN(C)C)[C@@H](CO)C2)c(Cl)c1OC | -7.01%
O=C(CCn1c(=O)oc2ccccc21)NCC(O)c1ccc(Cl)cc1 (stereo not drawn) | 9.7%
Fc1ccc(-c2cc(NCCC3CCOC3)n3nccc3n2)cc1 (stereo not drawn) | 0.148%
COCCN(CCOC)S(=O)(=O)N(C)Cc1ccncc1 | 19.1%
COc1ccc(C)cc1C(C(=O)O)N1CCN(Cc2ccccn2)CC1 (stereo not drawn) | 3.54%
COc1ccc(F)cc1C(=O)N1C[C@H]2CC[C@@H]1CN(c1ncccn1)C2 | -9.41%
COc1cccc(COCC(O)CN(C)c2ccc(C)cc2C)c1 (stereo not drawn) | -0.324%
CC(C)c1noc(-c2ccc(NCCCC3CCOC3)nc2)n1 (stereo not drawn) | -0.0541%
Cc1cc(NC(C)c2nncn2C2CCCC2)n2nc(C)cc2n1 (stereo not drawn) | -6.24%
CN(C)S(=O)(=O)Nc1ccc(Oc2ccc3c(c2)OCO3)cc1 | -5.35%
CC(=O)N1CCOCC2(C1)CN(S(C)(=O)=O)CCO2 (stereo not drawn) | -9.18%
O=C(CN1CCCCC1C1OCCO1)Nc1ccc(F)c(F)c1 (stereo not drawn) | -2.55%
